Data published in patent publication US4442031A, “Immunopotentiating peptides” (Hoffmann-La Roche Inc., priority 1983, dated 1984).
Where no end group is shown, it is not given here.

Legend:
[1] = tested on: delayed-type hypersensitivity (DTH); assay: Restoration of delayed-type hypersensitivity (DTH) decreased by 5-FU in BDF1 mice; format: in vivo; settings: i.p.; for DTH response %: % of control
Procedure: A poor prognosis is often observed in cancer patients with impaired immune response. Impaired immune response can be caused by the cancer itself, by chemotherapeutic agents, or by radiotherapy. Thus, therapeutic agents which restore impaired immune response in cancer patients are expected to play an important role in combination therapy. The restoration activity of the compounds of the invention on impaired cell-mediated immunity was determined by measuring the enhancement of delayed-type hypersensitivity (DTH), which was decreased to a great extent in mice treated with 5-fluorouracil (5-FU).
Female BDF1 mice (20-22 g, 11-12 weeks old) received (i.p. or p.o.) the compound to be tested on consecutive days one day before, concurrently with and 1 and 2 days after the 5-FU treatment. For DTH measurement, 10^8 chicken red blood cells (CRBC) were injected i.p. (or s.c. into the left hind footpad) and challenged s.c. into the right hind footpad at 3 and 7 days after the 5-FU treatment, respectively. Restoration activity was calculated by the following formula from the DTH response observed in the control group, 5-FU treated group treatment and the Test group treated both with 5-FU and the compound of the invention. Restoration activity was calculated by the formula: [formula]

[2] = tested on: Candida albicans ATCC 10231; assay: Protective activity against Candida albicans infection in 5-FU immunosuppressed mice; format: in vivo; settings: for Survivors Day 8 / Survivors Day 15: ddY mice; for Survivors at Day 8 after infection: Table 6, i.p., ten times with 5-FU, control 1/7
Procedure: In a series of examples, the compounds of formula I were tested for protective activity against opportunistic infections in immunosuppressed mice. Female ddY mice (6 weeks old) weighing about 26 g were pretreated daily for ten days with 5-fluorouracil (5-FU) (25 mg/kg/day, i.p.) and with thymosin α1 or with compounds of formula I (i.p.) at varying dosages. The mice were then infected with Candida albicans ATCC 10231 (1×10^5 cells or more) at 24 hour after the last treatment. One control group was administered 5-FU and saline solution and a second control group received neither 5-FU nor compound of formula I prior to infection with Candida albicans. The number of animals surviving eight days after infection with Candida albicans and 15 days after infection with Candida albicans is presented in the table below.
Normal mice (female ddY mice, 6 weeks old) were highly tolerant to infection with Candida albicans ATCC 10231 at relatively low dose (1-2×10^5 cells, iv.). However, when pretreated daily for ten times with 5-FU (25 mg/kg/day, ip.), the mice were susceptible to infection as shown in Table 6. […] Compound A was also shown to be active against infection with Pseudomonas aeruginosa 5E81-1 and Listeria monocytogenes EGD in the immunosuppressed mice (see Tables 7 and 8).

[3] = Table 3, first experiment, 5-FU plus 0.05 μg/kg/day
[4] = Table 3, first experiment, 5-FU plus 0.5 μg/kg/day
[5] = Table 3, first experiment, 5-FU plus 5.0 μg/kg/day
[6] = Table 3, second experiment, 5-FU plus 0.5 μg/kg/day
[7] = Table 3, second experiment, 5-FU plus 5.0 μg/kg/day
[8] = Table 3, second experiment, 5-FU plus 50.0 μg/kg/day
[9] = Example 8, 4.0 μg/kg i.p. daily for ten days with 5-FU
[10] = Example 8, 40.0 μg/kg i.p. daily for ten days with 5-FU

Substance: KSEVVE [Compound B, L-Lysyl-L-seryl-L-glutamyl-L-valyl-L-valyl-L-glutamic acid]
- DTH response av. ± S.E. (0.1 mm) ([1]; Table 3, first experiment (control 8.5, 5-FU alone 4.8), 5-FU plus 0.05 μg/kg/day): 7.2 ± 0.8 0.1 mm
- DTH response av. ± S.E. (0.1 mm) ([1]; Table 3, first experiment (control 8.5, 5-FU alone 4.8), 5-FU plus 0.5 μg/kg/day): 6.5 ± 0.7 0.1 mm
- DTH response av. ± S.E. (0.1 mm) ([1]; Table 3, first experiment (control 8.5, 5-FU alone 4.8), 5-FU plus 5.0 μg/kg/day): 8.5 ± 1.0 0.1 mm
- Restoration Activity(%) [1, 3]: 65.0%
- DTH response % [1, 3]: 84.7%
- Restoration Activity(%) [1, 4]: 48.0%
- DTH response % [1, 4]: 77.2%
- Restoration Activity(%) [1, 5]: 100%
- DTH response % [1, 5]: 100%
- DTH response av. ± S.E. (0.1 mm) ([1]; Table 3, second experiment (control 15.1, 5-FU alone 8.1), 5-FU plus 0.5 μg/kg/day): 8.5 ± 0.9 0.1 mm
- DTH response av. ± S.E. (0.1 mm) ([1]; Table 3, second experiment (control 15.1, 5-FU alone 8.1), 5-FU plus 5.0 μg/kg/day): 8.3 ± 1.8 0.1 mm
- DTH response av. ± S.E. (0.1 mm) ([1]; Table 3, second experiment (control 15.1, 5-FU alone 8.1), 5-FU plus 50.0 μg/kg/day): 9.4 ± 0.8 0.1 mm
- Restoration Activity(%) [1, 6]: 6.5%
- DTH response % [1, 6]: 56.4%
- Restoration Activity(%) [1, 7]: 3.1%
- DTH response % [1, 7]: 54.8%
- Restoration Activity(%) [1, 8]: 18.3%
- DTH response % [1, 8]: 61.9%
- DTH restoration activity (in words) ([1]; Tables 2 and 3): active
- Survivors Day 8 [2, 9]: 6/7
- Survivors Day 15 [2, 9]: 3/7
- Survivors Day 8 [2, 10]: 3/7
- Survivors Day 15 [2, 10]: 3/7
- Survivors Day 8 ([2]; Example 9, 4.0 μg/kg i.p. daily for ten days with 5-FU): 5/7
- Survivors Day 8 ([2]; Example 9, 40.0 μg/kg i.p. daily for ten days with 5-FU): 5/7
- Survivors at Day 8 after infection ([2]; 4 μg/kg/day): 5/7
- Survivors at Day 8 after infection ([2]; 40 μg/kg/day): 5/7
